Where two headings read alike, the source gives them in different places.
Key:
[1] = system: Myzus persicae; assay: Myzus persicae oral test (MYZUPE O); assay type: in vivo; conditions: for efficacy: after 5 days; for Emax at 0.8 ppm / Emax at 4 ppm: Myzus persicae, po, 120 h, MYZUPE O, 5 dat, read-out: % efficacy
Procedure: Solvent: 100 parts by weight of acetone
To produce a suitable preparation of active compound, 1 part by weight of active compound is dissolved using the specified parts by weight of solvent and made up with water until the desired concentration is attained.
50 μl of the active compound preparation are transferred into microtitre plates and made up to a final volume of 200 μl with 150 μl of IPL41 insect medium (33%+15% sugar). Subsequently, the plates are sealed with parafilm, which a mixed population of green peach aphids (Myzus persicae) within a second microtitre plate is able to puncture and imbibe the solution through it.
After 5 days, the efficacy in % is determined. 100% means that all the aphids have been killed; 0% means that no aphids have been killed.
Myzus persicae—Oral Test (MYZUPE O)
After 5 or 6 days (dat), the efficacy in % is determined. 100% means that all the aphids have been killed; 0% means that no aphids have been killed.

[2] = system: Myzus persicae; assay: Myzus persicae spray test (MYZUPE), Chinese cabbage leaf discs; assay type: in vivo; conditions: for efficacy: application rate 500 g/ha; for Emax at 100 g/ha: Myzus persicae, foliar, MYZUPE, 100 g of ai/ha, read-out: % efficacy
Procedure: Myzus persicae—Spray Test
To produce a suitable preparation of active compound, 1 part by weight of active compound is dissolved using the specified parts by weight of solvent and made up with water containing an emulsifier concentration of 1000 ppm until the desired concentration is attained. To produce further test concentrations, the formulation is diluted with emulsifier-containing water.
Discs of Chinese cabbage leaves (Brassica pekinensis) infested by all stages of the green peach aphid (Myzus persicae) are sprayed with an active compound formulation of the desired concentration.
After 5 or 6 days, the efficacy in % is determined. 100% means that all the aphids have been killed; 0% means that no aphids have been killed.
Myzus persicae—Spray Test (MYZUPE)
Discs of Chinese cabbage leaves (Brassica pekinensis) infested by all stages of the green peach aphid (Myzus persicae) are sprayed with an active compound preparation of the desired concentration.
After the desired period of time, the efficacy in % is determined. 100% means that all the aphids have been killed; 0% means that no aphids have been killed.

[3] = log P by HPLC on reversed-phase columns (OECD Guideline 117), neutral range; assay type: physicochemical

| Structure (SMILES) | efficacy ([1]; application rate 20 ppm) | efficacy ([2]; after 5 days) | LogP-neutral ([3]; pH 7.8) | further results |
| --- | --- | --- | --- | --- |
| CN(C(=O)c1cnc(Oc2ccc(Oc3ccc(Oc4ccc(F)nc4)nc3)nc2)n1C)c1cccnc1 [Example II-50] | 100% | 90% | 2.3 |  |
| Cc1ccncc1Oc1ncc(C(=O)N(C)c2cccnc2)n1C [Example II-53] | 100% | 90% |  | LogP-neutral ([3]; HPLC, neutral range pH 7.8): 1.24 |
| COc1cc(Cl)cc(Oc2ncc(C(=O)N(C)c3cccnc3)n2C)c1 [Example II-88] | 100% | 90% | 2.26 |  |
| O=C(Nc1cccnc1)c1c[nH]cn1 [Comparative Ex. 2, reference compound] |  |  |  | Emax at 0.8 ppm [1]: 0%; Emax at 4 ppm [1]: 0%; Emax at 100 g/ha ([2]; 144 h, 6 dat): 0% |
| CN(C(=O)c1cnc(OCC(F)(F)F)n1C)c1cccnc1 [Example II-96] |  |  | 0.9 |  |
| Cc1cccc(Oc2ncc(C(=O)N(C)c3cccnc3)n2C)c1 [Example II-79] | 90% | 90% |  | LogP-neutral ([3]; HPLC, neutral range pH 7.8): 1.97 |
| Cc1ccc(Oc2ncc(C(=O)N(C)c3cccnc3)n2C)cn1 [Example II-44] | 100% | 90% | 1.26 |  |
| CN(C(=O)c1cnc(Oc2cccc(C(F)(F)F)c2F)n1C)c1cccnc1 [Example II-78] | 100% | 100% | 2.39 |  |
| CN(C(=O)c1cnc(Oc2ccc(C(F)(F)F)nc2)n1C)c1cccnc1 [Example II-56] | 100% | 90% | 1.9 |  |
| CN(C(=O)c1cnc(Oc2ccc(Br)nc2)n1C)c1cccnc1 [Example II-61] | 90% | 100% | 1.63 |  |
| COc1ccc(Oc2ncc(C(=O)N(C)c3cccnc3)n2C)cn1 [Example II-39] | 90% | 90% | 1.5 |  |
| CN(C(=O)c1cnc(Oc2ccc(Oc3ccc(F)nc3)nc2)n1C)c1cccnc1 [Example II-49] | 100% | 90% | 1.86 |  |
| CN(C(=O)c1cnc(OC2CCCCC2)n1C)c1cccnc1 [Example II-22] | 90% |  | 2.15 | efficacy ([2]; after 6 days): 90% |
| CN(C(=O)c1cnc(Oc2ccccc2Cl)n1C)c1cccnc1 [Example II-13] | 100% |  |  | efficacy ([2]; after 6 days): 100%; LogP-neutral ([3]; HPLC, neutral range pH 7.8): 1.94 |
| CN(C(=O)c1cnc(Oc2cncc(Br)c2)n1C)c1cccnc1 [Example II-67] | 100% | 100% | 1.62 |  |
| CN(C(=O)c1cnc(OCc2ccc(F)cc2)n1C)c1cccnc1 [Example II-18] | 100% |  |  | efficacy ([2]; after 6 days): 100% |
| COc1cncc(Oc2ncc(C(=O)N(C)c3cccnc3)n2C)c1 [Example II-60] | 100% | 90% | 1.28 |  |
| Cc1cc(Cl)ncc1Oc1ncc(C(=O)N(C)c2cccnc2)n1C [Example II-59] | 100% | 90% | 1.68 |  |
| CN(C(=O)c1cnc(Oc2cc(F)cc(C(F)(F)F)c2)n1C)c1cccnc1 [Example II-86] | 100% | 100% | 2.55 |  |
| CCN(C(=O)c1cnc(Oc2ccc(Oc3ccc(Cl)nc3)nc2)n1C)c1cccnc1 [Example II-51] | 100% | 100% | 2.26 |  |
| CN(C(=O)c1cnc(Oc2ccc(F)c(C(F)(F)F)c2)n1C)c1cccnc1 [Example II-83] |  | 90% | 2.42 | efficacy ([1]; application rate 4 ppm): 100% |

| Structure (SMILES) | efficacy ([1]; application rate 20 ppm) | efficacy ([2]; after 5 days) | LogP-neutral ([3]; pH 7.8) | further results |
| --- | --- | --- | --- | --- |
| CN(C(=O)c1cnc(OCc2ncccn2)n1C)c1cccnc1 [Example II-11] |  |  | 0.53 |  |
| Cc1cncc(Oc2ncc(C(=O)N(C)c3cccnc3)n2C)c1 [Example II-54] | 100% | 90% | 1.31 |  |
| Cn1c(C(=O)Nc2cccnc2)c[nH]c1=O [VI-1-H] |  |  |  | log P[n] ([3]; pH 7.8): 0.1 |
| CN(C(=O)c1cnc(Oc2cccc(C#N)c2)n1C)c1cccnc1 [Example II-72] | 100% | 90% |  | LogP-neutral ([3]; HPLC, neutral range pH 7.8): 1.52 |
| CC(C)Oc1ncc(C(=O)Nc2cccnc2)n1C [II-1-H] |  |  |  | log P[n] ([3]; pH 7.8): 1.61 |
| CN(C(=O)c1cnc(Oc2cccnc2)n1C)c1cccnc1 [Example II-55] | 100% | 100% |  | LogP-neutral ([3]; HPLC, neutral range pH 7.8): 1.08 |
| CN(C(=O)c1cnc(Oc2cccc(S(C)(=O)=O)c2)n1C)c1cccnc1 [Example II-80] | 100% | 100% | 1.31 |  |
| COc1cccc(Oc2ncc(C(=O)N(C)c3cccnc3)n2C)c1 [Example II-76] |  |  | 1.75 |  |
| CON=Cc1cccc(Oc2ncc(C(=O)N(C)c3cccnc3)n2C)c1 [Example II-84] | 100% | 90% | 2.04 |  |
| CN(C(=O)c1cnc(Oc2cncc(C#N)c2)n1C)c1cccnc1 [Example II-62] | 100% | 90% |  | LogP-neutral ([3]; HPLC, neutral range pH 7.8): 1.27 |
| CCC(C)Oc1ncc(C(=O)N(C)c2cccnc2)n1C (stereo not drawn) [Example II-20] | 100% |  | 1.75 | efficacy ([2]; after 6 days): 100% |
| CCOc1cccc(Oc2ncc(C(=O)N(C)c3cccnc3)n2C)c1 [Example II-73] | 100% | 90% | 2.1 |  |
| CCc1cccc(Oc2ncc(C(=O)N(C)c3cccnc3)n2C)c1 [Example II-75] | 100% | 90% |  | LogP-neutral ([3]; HPLC, neutral range pH 7.8): 2.35 |
| COc1cc(Oc2ncc(C(=O)N(C)c3cccnc3)n2C)cnc1OC [Example II-64] |  | 100% | 1.49 | efficacy ([1]; application rate 4 ppm): 100% |
| CN(C(=O)c1cnc(Oc2ccc(Oc3ccc(Cl)nc3)nc2)n1C)c1cccnc1 [Example II-69] |  |  | 1.94 |  |
| Cc1ccc(Oc2ncc(C(=O)N(C)c3cccnc3)n2C)cc1Cl [Example II-85] | 90% | 100% | 2.45 |  |
| Cc1nc(C(=O)Nc2cccnc2)c[nH]1 [Comparative Ex. 1, reference compound] |  |  |  | Emax at 0.8 ppm [1]: 0%; Emax at 4 ppm [1]: 0%; Emax at 100 g/ha ([2]; 5/6 dat): 0% |
| CC(=O)Nc1cccc(Oc2ncc(C(=O)N(C)c3cccnc3)n2C)c1 [Example II-74] | 100% | 90% | 1.25 |  |
| CCN(C(=O)c1cnc(Oc2cncc(Cl)c2)n1C)c1cccnc1 [Example II-97] |  |  | 2.03 |  |
| CN(C(=O)c1cnc(Oc2ccccn2)n1C)c1cccnc1 [Example II-16] | 100% |  |  | LogP-neutral ([3]; HPLC, neutral range pH 7.8): 1.13 |
| CN(C(=O)c1cnc(Cl)n1C)c1cccnc1 [IX-1, 2-chloro-N, 1-dimethyl-N-(pyridin-3-yl)-1H-imidazole-5-carboxamide] |  |  |  | chromatographic logP ([3]; reversed-phase (C18) HPLC column, pH 7.8, HPLC-MS, neutral, read-out: log P[n]): 0.88 |

— patent US10647699B2, “Substituted 2-oxyimidazolylcarboxamides as pesticides” (Bayer CropScience Aktiengesellschaft, priority 2016, dated 2020)
